Test results from patent US7511041B2, “Fused azole-pyrimidine derivatives” (Bayer Pharmaceuticals Corporation, priority 2002, dated 2009).
Like-named read-outs stand apart in the source and are kept apart here.

Key:
[1] = biological target: T1, Recombinant human PI3Kγ (full length human PI3K p110γ) (Homo sapiens, UniProt P48736); experiment: Kinase assay of PI3Kγ (solid-phase lipid kinase assay); assay type: biochemical
T1 construct: full length human PI3K p110γ fused with a His6-tag at the C-terminus; His6 (C); purchased ALEXIS BIOCHEMICALS #201-055-C010; host or cells: S. frugiperda 9 insect cells
T1 sequence (P48736 whole entry, the tested form may be a part): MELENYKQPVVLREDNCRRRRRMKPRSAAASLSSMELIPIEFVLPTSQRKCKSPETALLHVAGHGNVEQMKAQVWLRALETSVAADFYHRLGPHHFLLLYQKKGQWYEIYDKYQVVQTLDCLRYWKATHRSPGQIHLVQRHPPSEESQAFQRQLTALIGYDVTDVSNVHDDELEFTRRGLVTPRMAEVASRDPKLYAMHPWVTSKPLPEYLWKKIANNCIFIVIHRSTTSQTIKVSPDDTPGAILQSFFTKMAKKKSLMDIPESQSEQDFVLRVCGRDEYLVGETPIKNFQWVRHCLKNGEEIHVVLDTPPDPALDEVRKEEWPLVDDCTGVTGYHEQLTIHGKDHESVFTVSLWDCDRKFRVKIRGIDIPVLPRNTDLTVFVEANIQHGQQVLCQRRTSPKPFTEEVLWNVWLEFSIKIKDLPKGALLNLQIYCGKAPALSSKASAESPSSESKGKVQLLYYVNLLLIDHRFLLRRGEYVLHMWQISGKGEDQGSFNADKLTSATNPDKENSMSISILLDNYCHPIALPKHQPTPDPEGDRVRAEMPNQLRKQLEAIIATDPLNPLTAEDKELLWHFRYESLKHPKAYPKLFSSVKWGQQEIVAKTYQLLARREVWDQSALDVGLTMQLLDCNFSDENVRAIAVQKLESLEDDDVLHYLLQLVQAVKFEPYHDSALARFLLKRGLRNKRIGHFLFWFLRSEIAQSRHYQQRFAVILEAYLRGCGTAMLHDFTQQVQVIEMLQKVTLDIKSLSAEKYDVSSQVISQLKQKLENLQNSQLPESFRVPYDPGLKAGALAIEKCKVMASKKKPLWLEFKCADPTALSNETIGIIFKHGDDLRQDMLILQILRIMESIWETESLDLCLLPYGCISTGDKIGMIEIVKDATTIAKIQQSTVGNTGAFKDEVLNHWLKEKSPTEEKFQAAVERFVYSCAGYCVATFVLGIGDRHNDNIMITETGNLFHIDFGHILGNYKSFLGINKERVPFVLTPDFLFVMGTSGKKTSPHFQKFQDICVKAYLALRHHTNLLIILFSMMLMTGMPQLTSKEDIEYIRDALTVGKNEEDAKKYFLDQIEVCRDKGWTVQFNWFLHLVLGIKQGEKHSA

[2] = Table 1, isozyme not given, read-out: in vitro
[3] = in vitro PI3K-γ inhibitory activity, class symbols A-D, read-out: in vitro PI3K-gamma
[4] = in vitro PI3K-γ inhibitory activity, class symbols, read-out: in vitro PI3K-gamma

Row | SMILES | IC50 [1, 2] | melting point | IC50 [1, 3] | IC50 [1, 4]
1 | CN(C)C(=O)NCCc1ccc2c(n1)N=C(/C=C(\O)c1cccnc1)N1CCN=C21 [Example 1-203] | 100 to 500 nM | 228 °C | – | –
2 | CC(=O)Nc1ccc(/C(O)=C/C2=Nc3cc(N4CCOCC4)ccc3C3=NCCN23)cn1 [Example 1-96] | < 100 nM | 269 °C (dec.) | – | –
3 | O=C(NC1=Nc2cc(OCC(=O)N3CCOCC3)ccc2C2=NCCN12)c1cccnc1 [Example 2-207] | – | 232 to 236 °C (dec.) | 100 to 500 nM | –
4 | O=C(NC1=Nc2ccccc2C2=NCCN12)c1ccc2cccnc2n1 [Example 2-177] | – | 275 °C (dec.) | – | 100 to 500 nM
5 | CC(C)n1c(C(F)(F)F)nc2cc(C(=O)NC3=Nc4ccccc4C4=NCCN34)ccc21 [Example 2-309] | – | 250 to 253 °C | > 2000 nM | –
6 | COc1ccc(C(=O)NC2=Nc3ccccc3C3=NCCN23)cc1 [Example 2-235] | – | 300 °C (dec.) | > 2000 nM | –
7 | Cl.O=C(NC1=Nc2cccc(Cl)c2C2=NCCN12)c1cccs1 [Example 2-359] | – | 227 °C | 500 to 2000 nM | –
8 | O=C(NC1=Nc2ccccc2C2=NCCN12)c1ccccn1 [Example 2-276] | – | 204 to 205 °C | 500 to 2000 nM | –
9 | Cl.O/C(=C\C1=Nc2c(O)cccc2C2=NCCN12)c1cccnc1 [Example 1-83] | 100 to 500 nM | > 250 °C | – | –
10 | Nc1ccc(C(=O)NC2=Nc3ccccc3C3=NCCN23)cn1 [Example 2-149] | – | > 300 °C | – | < 100 nM
11 | COc1c(OCc2nn[nH]n2)ccc2c1N=C(/C=C(\O)c1cccnc1)N1CCN=C21 [Example 1-196] | < 100 nM | 229 to 231 °C | – | –
12 | O=C(NC1=Nc2ccccc2C2=NCCN12)c1ccc(F)cc1 [Example 2-225] | – | 210 to 212 °C | > 2000 nM | –
13 | COc1cccc2c1N=C(NC(=O)c1cccnc1Cl)N1CCN=C21 [Example 2-118] | – | 185 °C (dec.) | – | < 100 nM
14 | COc1c(OCCN2CCCCC2)ccc2c1N=C(/C=C(\O)c1cccnc1)N1CCN=C21 [Example 1-20] | 100 to 500 nM | 162 to 163 °C | – | –
15 | COc1ccc2c(c1OCC(=O)O)N=C(/C=C(\O)c1cccnc1)N1CCN=C21.Cl [Example 1-200] | 100 to 500 nM | 286 °C (dec.) | – | –
16 | Cc1ccncc1C(=O)NC1=Nc2ccccc2C2=NCCN12 [Example 2-136] | – | 194 to 195 °C | – | 100 to 500 nM
17 | COc1ccccc1C(=O)NC1=Nc2ccccc2C2=NCCN12 [Example 2-232] | – | 185 to 187 °C | > 2000 nM | –
18 | CN1CCN(c2ccc3c(c2)N=C(/C=C(\O)c2ccc4[nH]cnc4c2)N2CCN=C32)CC1.Cl [Example 1-108] | 100 to 500 nM | > 300 °C | – | –
19 | CCOc1ccc2c(c1OC)N=C(/C=C(\O)c1cccnc1)N1CCN=C21 [Example 1-13] | < 100 nM | 267 to 268 °C | – | –
20 | CN(C)/C=N/c1cncc(C(=O)NC2=Nc3ccccc3C3=NCCN23)c1 [Example 2-146] | – | 219 °C (dec.) | – | 100 to 500 nM
21 | O=C(NC1=Nc2ccccc2C2=NCCN12)c1cc(Cl)cc(Cl)c1 [Example 2-231] | – | 268 to 269 °C | > 2000 nM | –
22 | COC(=O)CCCOc1c(OC)ccc2c1N=C(/C=C(\O)c1cccnc1)N1CCN=C21.Cl [Example 1-199] | < 100 nM | 178 to 179 °C | – | –

Row | SMILES | IC50 [1, 2] | melting point | IC50 [1, 3] | IC50 [1, 4]
23 | O=C(NC1=Nc2ccccc2C2=NCCN12)c1cnc2[nH]cnc2c1 [Example 2-172] | – | > 300 °C | – | < 100 nM
24 | OCCOc1cccc2c1N=C(/C=C(\O)c1cccnc1)N1CCN=C21 [Example 1-91] | 100 to 500 nM | 211 to 212 °C | – | –
25 | O=[N+]([O-])c1ccc2c(c1)C1=NCCN1C(/C=C(\O)c1ccccc1)=N2 [Example 1-191] | > 2000 nM | 259 to 262 °C | – | –
26 | CN(C)c1ccc2c(c1)C1=NCCN1C(NC(=O)c1cccs1)=N2 [Example 2-346] | – | 272 °C | > 2000 nM | –
27 | Cl.O/C(=C\C1=Nc2cc(C(F)(F)F)ccc2C2=NCCN12)c1cccnc1 [Example 1-122] | 100 to 500 nM | 321 °C | – | –
28 | C=Cc1ccc2c(c1)C1=NCCN1C(NC(=O)c1cccnc1)=N2 [Example 2-95] | – | 196 to 198 °C | – | 100 to 500 nM
29 | O=C(NC1=Nc2ccccc2C2=NCCN12)c1csc(-c2ccncc2)n1 [Example 2-321] | – | 281 °C (dec.) | > 2000 nM | –
30 | Cc1cc(C(=O)NC2=Nc3ccccc3C3=NCCN23)cc(C)c1[N+](=O)[O-] [Example 2-222] | – | 277 °C (dec.) | > 2000 nM | –
31 | O=C(NC1=Nc2ccccc2C2=NCCN12)c1ccsc1 [Example 2-183] | – | 167 °C (dec.) | – | 100 to 500 nM
32 | O=C(NC1=Nc2ccccc2C2=NCCN12)c1ccc(C(F)(F)F)nc1 [Example 2-280] | – | 219 to 220 °C | > 2000 nM | –
33 | Cl.O=C(NC1=Nc2ccccc2C2=NCCN12)c1cnc2ccccc2c1 [Example 2-317] | – | 319 °C (dec.) | 100 to 500 nM | –
34 | O/C(=C\C1=Nc2ccccc2C2=NCCN12)c1ccsc1 [Example 1-148] | 100 to 500 nM | 182 to 183 °C | – | –
35 | O/C(=C\C1=Nc2ccccc2C2=NCCN12)C(F)(F)F [Example 1-184] | 500 to 2000 nM | 240 °C | – | –
36 | Cl.O=C(NC1=Nc2ccc(Cl)cc2C2=NCCN12)c1ccc2[nH]cnc2c1 [Example 2-86] | – | 305 °C (dec.) | – | 100 to 500 nM
37 | Cc1ccc2c(c1)N=C(/C=C(\O)c1cccnc1)N1CCN=C21 [Example 1-119] | 100 to 500 nM | 224 °C | – | –
38 | O=C(NC1=Nc2ccccc2C2=NCCN12)c1ccccc1.O=C(O)C(F)(F)F [Example 2-215] | – | 238 to 242 °C | 100 to 500 nM | –
39 | Cc1nc(C)c(C(=O)NC2=Nc3ccccc3C3=NCCN23)s1 [Example 2-189] | – | 243 °C (dec.) | – | 100 to 500 nM
40 | CN(C=O)c1ccc(C(=O)NC2=Nc3ccccc3C3=NCCN23)cc1 [Example 2-263] | – | 208 to 210 °C | > 2000 nM | –
41 | COc1cc(C(=O)NC2=Nc3ccccc3C3=NCCN23)cc(OC)c1OC.Cl [Example 2-240] | – | 291 °C (dec.) | > 2000 nM | –
42 | COc1c(C)ccc2c1N=C(/C=C(\O)c1ccc3[nH]cnc3c1)N1CCN=C21 [Example 1-34] | < 100 nM | > 285 °C | – | –
43 | O=C(NC1=Nc2ccccc2C2=NCCN12)c1cccc(Cl)c1 [Example 2-227] | – | 196 to 197 °C | > 2000 nM | –
44 | Cl.O=C(NC1=Nc2cc(O)ccc2C2=NCCN12)c1cccnc1 [Example 2-195] | – | 270 to 274 °C (dec.) | – | 100 to 500 nM

Row | SMILES | IC50 [1, 2] | melting point | IC50 [1, 3] | IC50 [1, 4]
45 | Cc1cc(C(=O)NC2=Nc3ccccc3C3=NCCN23)cnc1N [Example 2-159] | – | 246 to 247 °C | – | 100 to 500 nM
46 | Cl.O/C(=C\C1=Nc2ccc(Br)cc2C2=NCCN12)c1cccnc1 [Example 1-129] | 100 to 500 nM | > 300 °C | – | –
47 | O=C(NC1=Nc2cc(C(F)(F)F)ccc2C2=NCCN12)c1cccnc1 [Example 2-33] | – | 229 °C | – | 100 to 500 nM
48 | O=C(NC1=Nc2cc(C(F)(F)F)ccc2C2=NCCN12)c1cccs1 [Example 2-349] | – | 226 °C | 100 to 500 nM | –
49 | Cc1ccc2c(c1)C1=NCCN1C(NC(=O)c1ccc3[nH]cnc3c1)=N2.Cl [Example 2-92] | – | > 290 °C | – | < 100 nM
50 | COc1c(OCC(=O)N(C)C)ccc2c1N=C(/C=C(\O)c1cccnc1)N1CCN=C21 [Example 1-27] | < 100 nM | 241 to 242 °C | – | –
51 | COc1cccc2c1N=C(NC(=O)c1cnccc1C(F)(F)F)N1CCN=C21 [Example 2-121] | – | 144 to 145 °C | – | 100 to 500 nM
52 | Cl.O/C(=C\C1=Nc2ccccc2C2=NCCN12)c1ccc2[nH]cnc2c1 [Example 1-157] | 100 to 500 nM | > 300 °C | – | –
53 | Cl.O=C(NC1=Nc2ccc(Cl)cc2C2=NCCN12)c1cccs1 [Example 2-356] | – | 276 °C | 100 to 500 nM | –
54 | COc1c(OCC2CC2)ccc2c1N=C(/C=C(\O)c1cccnc1)N1CCN=C21 [Example 1-15] | 100 to 500 nM | 254 °C (dec.) | – | –
55 | COc1ccc2c(c1OC)N=C(NC(=O)c1ccc(NC(C)=O)nc1)N1CCN=C21 [Example 2-48] | – | 306 to 307 °C | – | < 100 nM
56 | COc1cc2c(cc1OC)C1=NCCN1C(NC(=O)c1cccs1)=N2 [Example 2-62] | – | 248 °C | – | 100 to 500 nM
57 | O=C(NC1=Nc2ccccc2C2=NCCN12)c1ccco1 [Example 2-298] | – | 350 °C (dec.) | 500 to 2000 nM | –
58 | O/C(=C\C1=Nc2c(OCC3CC3)cccc2C2=NCCN12)c1cccnc1 [Example 1-88] | 100 to 500 nM | 203 °C (dec.) | – | –
59 | O/C(=C\C1=Nc2ccccc2C2=NCCN12)c1ccc[nH]1 [Example 1-150] | 100 to 500 nM | 247 °C | – | –
60 | O=C(NC1=Nc2ccccc2C2=NCCN12)C(F)(F)C(F)(F)F [Example 2-333] | – | 210 to 211 °C | > 2000 nM | –
61 | Cl.O=C(NC1=Nc2cc(Cl)ccc2C2=NCCN12)c1cccs1 [Example 2-41] | – | 328 °C | – | 100 to 500 nM
62 | O/C(=C\C1=Nc2ccccc2C2=NCCN12)c1ccco1 [Example 1-143] | 100 to 500 nM | 192 °C | – | –
63 | O=[N+]([O-])c1cccc(/C(O)=C/C2=Nc3ccccc3C3=NCCN23)c1 [Example 1-167] | > 2000 nM | 276 °C | – | –
64 | CC(C)(C)OC(=O)CCc1ccc2c(n1)N=C(/C=C(\O)c1cccnc1)N1CCN=C21 [Example 1-163] | 100 to 500 nM | 200 °C | – | –
